Measurements: patent publication US7906551B2 (Rottapharm S.p.A., priority 2006, dated 2011)
Where two headings read alike, the source gives them in different places.

Experiments:
COX-2 [1] = target: T1, COX-2 (Mus musculus, UniProt Q05769); experiment: Assessment of COX-2 activity in LPS-stimulated J774 cells (PGE2 radioimmunoassay); assay type: cell-based, murine; conditions: for IC50: read-out: COX-2 IC50
T1 construct: lipopolysaccharide (LPS, 10 μg/mL) to induce COX-2; endogenous in cells; host or cells: J774 murine monocyte/macrophage cell line, LPS-stimulated
T1 sequence (Q05769 18-604): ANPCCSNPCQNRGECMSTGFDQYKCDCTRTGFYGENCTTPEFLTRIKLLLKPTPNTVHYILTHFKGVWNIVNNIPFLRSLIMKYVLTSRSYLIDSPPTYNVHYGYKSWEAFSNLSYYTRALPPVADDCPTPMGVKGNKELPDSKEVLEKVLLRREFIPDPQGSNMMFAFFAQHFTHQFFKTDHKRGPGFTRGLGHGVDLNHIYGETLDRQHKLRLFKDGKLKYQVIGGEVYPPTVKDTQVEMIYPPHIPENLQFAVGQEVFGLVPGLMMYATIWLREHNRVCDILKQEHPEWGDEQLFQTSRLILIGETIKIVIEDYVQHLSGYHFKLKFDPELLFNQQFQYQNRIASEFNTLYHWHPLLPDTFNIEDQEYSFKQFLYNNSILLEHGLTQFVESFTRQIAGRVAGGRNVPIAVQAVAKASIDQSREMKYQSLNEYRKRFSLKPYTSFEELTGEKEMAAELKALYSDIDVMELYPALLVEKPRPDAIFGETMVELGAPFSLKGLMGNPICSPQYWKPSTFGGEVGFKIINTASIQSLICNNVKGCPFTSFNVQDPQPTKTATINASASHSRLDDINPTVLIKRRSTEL
Method: Cells were stimulated for 24 h with E. coli lipopolysaccharide (LPS, 10 μg/mL) to induce COX-2, in the absence or presence of test compounds, at the concentrations previously reported. The supernatants were collected for the measurement of PGE2 by radioimmunoassay.
(§1) Analysis. Throughout the time the experiments lasted, triplicate wells were used for the various conditions of treatment. Results are expressed as the mean, for 3 experiments, of the % inhibition of PGE2 production by test compounds with respect to control samples. Data fit was obtained using the sigmoidal dose-response equation (variable slope). The IC50 were calculated by GraphPad Instat program (GraphPad software).

COX-1 [2] = target: T2, COX-1 (Mus musculus, UniProt P22437); conditions: Table 1, reported by reference; cited from earlier work
T2 construct: endogenous in cells; host or cells: J774 murine monocyte/macrophage cell line
T2 sequence (P22437 27-602): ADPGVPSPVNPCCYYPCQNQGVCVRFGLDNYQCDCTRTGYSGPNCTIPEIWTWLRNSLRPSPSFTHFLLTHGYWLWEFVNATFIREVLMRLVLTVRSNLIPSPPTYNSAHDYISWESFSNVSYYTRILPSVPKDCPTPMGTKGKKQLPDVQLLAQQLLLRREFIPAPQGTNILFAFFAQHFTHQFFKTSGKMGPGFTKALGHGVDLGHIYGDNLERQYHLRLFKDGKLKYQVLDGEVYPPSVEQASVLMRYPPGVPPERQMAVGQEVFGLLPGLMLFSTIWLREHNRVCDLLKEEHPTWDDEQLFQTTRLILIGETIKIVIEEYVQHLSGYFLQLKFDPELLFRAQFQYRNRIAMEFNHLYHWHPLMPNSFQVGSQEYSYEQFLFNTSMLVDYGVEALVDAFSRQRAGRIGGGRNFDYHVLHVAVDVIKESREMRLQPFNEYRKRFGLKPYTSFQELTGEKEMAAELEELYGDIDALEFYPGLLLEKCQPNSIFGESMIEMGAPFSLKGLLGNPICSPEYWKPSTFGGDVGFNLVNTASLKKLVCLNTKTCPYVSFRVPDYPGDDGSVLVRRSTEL

COX-2 [3] = target: T1, COX-2; conditions: Table 1, reported by reference; cited from earlier work
[4] = tested on: rat model of hyperalgesia induced by carragenine; experiment: Paw pressure test, hyperalgesia induced by carragenine; assay type: in vivo; conditions: 20 mg/Kg
Method: (§2) Male Swiss albino mice (23-25 g) and Sprague Dawley or Wistar rats (150-200 g) were used. The animals were fed a standard laboratory diet and tap water ad libitum and kept at 23±1° C. with a 12 h light/dark cycle, light on at 7 a.m.
The nociceptive threshold in the rat was determined with an analgesimeter, according to the method described by Leighton et al, G. E.; Br. J. Pharmacol. 1988, 93, 553-560. Threshold pressure was measured before and 30, 60 and 120 min after treatment. An arbitrary cut-off value of 250 g was adopted. In order to induce an inflammatory process in the rat paw carrageenan (0.1 ml, 1%) was administered i.p. 4 h before test.

[5] = tested on: rat model of edema induced by carragenine; experiment: Carrageenan-induced paw edema; assay type: in vivo; conditions: 1 h, 20 mg/Kg, read-out: Edema inhibition 60 min, MPE
Method: as §2
Rats paw volumes were measured using a plethysmometer. Rats received the investigated compounds 4 hours after a 0.1-ml injection of 1.0% carrageenan in the right hind paw. Five hours after the injection of carrageenan (i.e. 1 hour after the administration of the investigated compound), the paw volume of the right hind paw was measured and compared with saline/carrageenan-treated controls. Results are reported as maximum percent effect (MPE), see below for detailed explanation.

COX-1 [6] = target: T2, COX-1; experiment: Assessment of COX-1 activity in J774 cells (arachidonic acid, PGE2 radioimmunoassay); assay type: cell-based, murine; conditions: Table 8, Formula I-c
Method: Stock solutions of the reference standard or of the test compounds were prepared in dimethyl sulphoxide, and an equivalent amount of dimethyl sulphoxide was included in control samples. At the end of the incubation the supernatants were collected for the measurement of PGE2 by radioimmunoassay.
as §1

| melting point | Structure (SMILES) | IC50 (COX-1 [2]) | COX-1/COX-2 Selectivity Index (IC50 ratio) (COX-2 [3]) | also measured |
| --- | --- | --- | --- | --- |
| 124 °C | CCCCOC(=O)Cc1cc(-c2ccc(S(C)(=O)=O)cc2)n(-c2ccccc2)c1C [Example 6, n-Butyl[1-phenyl-2-methyl-5-(4-methylsulphonyl)phenyl-1H-pyrrol-3-yl]acetate] |  |  | COX-1/COX-2 Selectivity Index (IC50 ratio) (COX-2 [1]; Table 2, Formula Ia): >7100 |
| 130 °C | CCOC(=O)C(O)c1cc(-c2ccc(S(C)(=O)=O)cc2)n(-c2ccc(OC)cc2)c1C (racemic) [Example 8, Ethyl[2-hydroxy-2-[1-(4-methoxy)phenyl-2-methyl-5-(4-methylsulphonyl)phenyl-1H-pyrrol-3-yl]]acetate] |  |  |  |
|  | CCOC(=O)Cc1cc(-c2ccc(S(C)(=O)=O)cc2)n(-c2ccc(C(F)(F)F)cc2)c1C [Compound 3b, Ethyl 2-[2-methyl-5-(4-methylsulphonyl)phenyl-1-(4-trifluoromethyl)phenyl-1H-pyrrol-3-yl]acetate] | > 100 µM | >1600 |  |
|  | CCOC(=O)Cc1cc(-c2ccc(S(C)(=O)=O)cc2)n(-c2ccccc2)c1C [Compound 1b, Ethyl 2-[2-methyl-5-(4-methylsulphonyl)phenyl-1-phenyl-1H-pyrrol-3-yl]acetate, reference compound] | > 100 µM | >2500 | inhibition in vivo at 20 mg/kg ([4]; 0.5 h, 30 min, read-out: Analgesia 30 min MPE): 18%; inhibition in vivo at 20 mg/kg ([4]; 1 h, 60 min, read-out: Analgesia 60 min MPE): 30%; inhibition in vivo at 20 mg/kg ([5]; 60 min): 10% |
| 145 °C | CCOC(=O)C(O)c1cc(-c2ccc(S(C)(=O)=O)cc2)n(-c2ccccc2)c1C (racemic) [Example 7, Ethyl[2-hydroxy-2-[2-methyl-5-(4-methylsulphonyl)phenyl-1-phenyl-1H-pyrrol-3-yl]]acetate] |  |  |  |
|  | Cc1c(CC(=O)O)cc(-c2ccc(S(C)(=O)=O)cc2)n1-c1ccc(C(F)(F)F)cc1 [Compound 3a] | > 100 µM | >900 |  |
| 175 to 179 °C | Cc1c(CC(=O)N(C)C)cc(-c2ccc(S(C)(=O)=O)cc2)n1-c1ccccc1 [Example 15, N,N-Dimethyl-[2-methyl-5-(4-methylsulphonyl)phenyl-1-phenyl-1H-pyrrol-3-yl]acetamide] |  |  | IC50 (COX-1 [6]): > 100 µM; IC50 (COX-2 [1]; Table 8, Formula I-c): 0.58 µM |
|  | CCOC(=O)C(O)c1cc(-c2ccc(S(C)(=O)=O)cc2)n(-c2cccc(F)c2)c1C (racemic) [Example 9, Ethyl[2-hydroxy-2-[1-(3-fluoro)phenyl-2-methyl-5-(4-methylsulphonyl)phenyl-1H-pyrrol-3-yl]]acetate] |  |  | COX-1/COX-2 Selectivity Index (IC50 ratio) (COX-2 [1]; Table 6, Formula Ib): >310; IC50 (COX-2 [1]; Table 6, Formula Ib): 0.32 µM; inhibition in vivo at 20 mg/kg ([4]; 0.5 h, Table 7, 30 min, read-out: Analgesia 30 min MPE): 80%; inhibition in vivo at 20 mg/kg ([4]; 1 h, Table 7, 60 min, read-out: Analgesia 60 min MPE): 40%; inhibition in vivo at 20 mg/kg ([5]; Table 7, 60 min): 40% |
| 157 to 160 °C | CCCNC(=O)NCCc1cc(-c2ccc(S(C)(=O)=O)cc2)n(-c2ccccc2)c1C [Example 39, N-[2-(2-Methyl-5-(4-(methylsulphonyl)phenyl)-1-phenyl-1H-pyrrol-3-yl)ethyl]-3-propyl urea] |  |  |  |
|  | Cc1ccc(-n2c(-c3ccc(S(C)(=O)=O)cc3)cc(CC(=O)O)c2C)cc1 [Compound 2a, 2-[1-(4-methyl)phenyl-2-methyl-5-(4-methylsulphonyl)phenyl-1H-pyrrol-3-yl]acetic acid] | > 100 µM | >200 |  |
|  | Cc1c(CC(=O)O)cc(-c2ccc(S(C)(=O)=O)cc2)n1-c1ccccc1 [Compound 1a, 2-[2-methyl-5-(4-methylsulphonyl)phenyl-1-phenyl-1H-pyrrol-3-yl]acetic acid] | > 100 µM | >100 |  |
|  | CCOC(=O)Cc1cc(-c2ccc(S(C)(=O)=O)cc2)n(-c2ccc(C)cc2)c1C [Compound 2b, Ethyl 2-[1-(4-methyl)phenyl-2-methyl-5-(4-methylsulphonyl)phenyl-1H-pyrrol-3-yl]acetate] | > 100 µM | >200 |  |
| 178 to 181 °C | CNC(=O)Cc1cc(-c2ccc(S(C)(=O)=O)cc2)n(-c2ccccc2)c1C [Example 13, N-Methyl-[2-methyl-5-(4-methylsulphonyl)phenyl-1-phenyl-1H-pyrrol-3-yl]acetamide] |  |  | IC50 (COX-1 [6]): > 100 µM; IC50 (COX-2 [1]; Table 8, Formula I-c): 1 µM |
